Reference: patent US4530923A, “N-acetamilide, N-(phenoxy-2-propanol)- and N-(phenylamino-2-propanol)-cyclicamines” (Egyt Gyogyszervegyeszeti Gyar, priority 1981, dated 1985)
Read-outs that look alike come from different tables or passages of the source.

What was measured:
[1] = tested on: isolated rabbit heart preparation; assay: heartelectrophysiological methods on an isolated rabbit heart preparation (summary)
Description: The compounds of Examples 5, 6 and 7, tested by heartelectrophysiological methods on an isolated rabbit heart preparation decrease the spontaneous frequency of right ventricle, increase the electric stimulus threshold, prolong the effective refractory period and also the time of stimulus conduction. The data referring hereto are given in Table II, in the percentage of the original values.

[2] = tested on: Auricle; assay: antiarrhythmic activity, electrical fibrillation threshold of auricle, anaesthetized cats; type: in vivo; settings: relative to quinidine = 1.00, from ED50 mg/kg, i.v., fibrillation threshold method
Protocol: (§1) The animals were anaesthetized with chloralose-urethane [50/30 mg/kg, i.v.]. The minimal strength of the current necessary to evoke the ventricular and auricular fibrillo-flutter, respectively, was followed by the method of Szekeres and al. [Szekeres, Mehes and Papp: Brit. J. Pharmacol. 17, 167 (1961); Szekeres and Papp: Experimental Cardiac Arrhythmias and Antiarrhythmic Drugs, Akademiai Kiado, Budapest, 1971; Szekeres and Papp: Experimental Cardiac Arrhythmias, Hdb. Exp. Pharmacol. XVI/3, 131, (1975).
(§2) The therapeutic indices related to the antiarrhythmic activity were calculated on the basis of the LD50 /ED50 ratio, where LD50 is the doses resulting in the death of the 50% of the animals (rats), and ED50 is the dosis provoking a 50% rise in the electrical threshold for fibrillation on rats. The LD50 values were determined on male Wistar rats weighing 180 to 220 g by the method of Litchfield and Wilcoxon [J. Pharmacol. Exp. Ther. 95, 49 (1949)].
(§3) ^+ Relative activity calculated from the antiarrhythmic activity
(§4) [ED50 mg/kg, i.v.] determined on cats by the fibrillation threshold

[3] = tested on: left auricle; assay: heartelectrophysiological test on isolated rabbit heart preparation, left auricle; settings: Oryctolagus cuniculus, percentage of the original values; for activation at 0.2 µg/mL: 0.2 mg/l; for activation at 0.5 µg/mL: 0.5 mg/l; for activation at 5 µg/mL: 5 mg/l
[4] = tested on: papillary muscle; assay: heartelectrophysiological test on isolated rabbit heart preparation, papillary muscle; settings: Oryctolagus cuniculus, percentage of the original values; for activation at 0.2 µg/mL: 0.2 mg/l; for activation at 0.5 µg/mL: 0.5 mg/l; for activation at 5 µg/mL: 5 mg/l
[5] = therapeutic index LD50:ED50 related to antiarrhythmic activity on ventricle; type: in vivo, LD50: male Wistar rats; ED50: cats (b90) / rats (b59); settings: rat, in vivo, iv; LD50 p.os rats; ED50 i.v.
Protocol: as §1, §2
(§5) The i.v. and p.os LD50 values were determined on rats.

[6] = tested on: Ventricle; assay: as above; type: in vivo, LD50: male Wistar rats; ED50: cats (b90) / rats (b59); settings: for Ventricle: Therapeutic index LD50:ED50 /i.v.//i.v./: LD50 i.v. rats
Protocol: as §1, §2, §5

[7] = therapeutic index LD50:ED50 related to antiarrhythmic activity on auricle; type: in vivo, LD50: male Wistar rats; ED50: cats (b90) / rats (b59); settings: rat, in vivo, iv, ED50 i.v.
Protocol: as §1, §2, §5

[8] = tested on: Ventricle; assay: antiarrhythmic activity, electrical fibrillation threshold of ventricle, anaesthetized cats; type: in vivo; settings: relative to quinidine = 1.00, from ED50 mg/kg, i.v., fibrillation threshold method
Protocol: as §1, §2, §3, §4

[9] = tested on: dogs; assay: haemodynamics in dogs anaesthetized with nembutal; type: in vivo; settings: nembutal anaesthesia, 0.5 to 2 mg/kg i.v.
Protocol: On dogs anaesthetized with nembutal (35 mg/kg, i.v.) in an i.v. dosis of 0.5 to 2 mg/kg the compounds slightly decrease the arterial blood pressure. The compounds of Examples 5 and 6 decrease the coronary resistance, improve the oxygenization of the heart muscle, increase the blood flow of the artery femoralis, and the compound of Example 5 increases also the blood flow of arteria carotis.

[10] = tested on: right auricle; assay: heartelectrophysiological test on isolated rabbit heart preparation, right auricle; settings: Oryctolagus cuniculus, percentage of the original values, read-out: Spontaneous frequency /right auricle/; for inhibition at 0.2 µg/mL: 0.2 mg/l
[11] = tested on: nervus ischiadicus of frog; assay: local anaesthetic effect on action potential of nervus ischiadicus of frog
[12] = tested on: Auricle; assay: therapeutic index LD50:ED50 related to antiarrhythmic activity on auricle; type: in vivo, LD50: male Wistar rats; ED50: cats (b90) / rats (b59)
Protocol: as §1, §2, §5

[13] = tested on: cardiac rhythm disturbances; settings: cited from earlier work
[14] = read-out: Effective refractory period /left auricle/
[15] = read-out: Electrical threshold /left auricle/
[16] = read-out: Time of the stimulus-conduction /left auricle/
[17] = read-out: Effective refractory period /papillary muscle/
[18] = read-out: Electrical threshold /papillary muscle/
[19] = LD50 i.v. rats, read-out: Auricle: Therapeutic index LD50:ED50 /i.v.//i.v./
[20] = LD50 p.os rats, read-out: Auricle: Therapeutic index LD50:ED50 /p.os//i.v./
[21] = ventricle (from Table I), versus quinidine

SMILES	effective refractory period (in words) [1]	electric stimulus threshold (in words) [1]	spontaneous frequency of right ventricle (in words) [1]	time of stimulus conduction (in words) [1]	Auricle: Relative activity [2]	activation at 0.2 µg/mL [3, 14] [%]	activation at 0.2 µg/mL [3, 15] [%]	activation at 0.2 µg/mL [3, 16] [%]	activation at 0.2 µg/mL [4, 17] [%]	activation at 0.2 µg/mL [4, 18] [%]	selectivity ratio [5]	Ventricle: Therapeutic index LD50:ED50 /i.v.//i.v./ [6]	selectivity ratio [7, 19]	selectivity ratio [7, 20]	Ventricle: Relative activity [8]	blood flow of the artery femoralis [9]	coronary resistance [9]	oxygenization of the heart muscle [9]	inhibition at 0.2 µg/mL [10] [%]	also measured
Cc1cccc(C)c1OCC(O)CN1CCCCCC1 (stereo not shown) [Example 5, 1-(2,6-dimethylphenoxy)-3-hexamethyleneimino-propanol-2]	prolong	increase	decrease	prolong	7.14	10	24	38	9	46	110	7.7	13.3	189	8.04	increase	decrease	improve	4 ± 2	blood flow of arteria carotis [9]: increases
Cc1cccc(C)c1OCC(O)CN1CCCCCCC1 (stereo not shown) [Example 6, 1-(2,6-dimethylphenoxy)-3-heptamethyleneimino-propanol-2]	prolong	increase	decrease	prolong	12.50	3	19	15	4	9	229	2.8	23.9	1960	2.80	increase	decrease	improve	7 ± 1	local anaesthetic effect (in words) [11]: strong local anaesthetic effect; local anaesthetic effect, times stronger than that of lidocaine ([11]; versus lidocaine): 2.7 times; quotient per os LD50 / i.v. ED50, times higher than that of quinidine [6, 21]: about 1.6 times; therapeutic index related to the supraventricular activity (in words) ([12]; among the tested compounds): most preferable therapeutic index; therapeutic index related to supraventricular activity (i.v. toxicity), times higher than that of quinidine ([12]; i.v. LD50 / i.v. ED50, versus quinidine): about 1.8 times; therapeutic index related to supraventricular activity (per os toxicity), times higher than that of quinidine ([12]; per os LD50 / i.v. ED50, versus quinidine): ~7 times
Cc1cccc(C)c1NCC(O)CN1CCCCCC1 (stereo not shown) [Example 7, 1-hexamethyleneimino-3-(2,6-dimethylanilino)propanol-2]	prolong	increase	decrease	prolong	8.54						209	9.9	20.7	439	7.85					activation at 0.5 µg/mL [3, 14]: 11%; activation at 0.5 µg/mL [3, 15]: 25%; activation at 0.5 µg/mL [3, 16]: 28%; activation at 0.5 µg/mL [4, 17]: 10%; activation at 0.5 µg/mL [4, 18]: 29%; quotient i.v. LD50 / i.v. ED50, times higher than that of quinidine [6, 21]: about 1.4 times; inhibition at 0.5 µg/mL ([10]; 0.5 mg/l): 9 ± 1%
C=C[C@H]1C[N@@]2CC[C@H]1C[C@@H]2[C@@H](O)c1ccnc2ccc(OC)cc12 [Quinidine, reference compound]					1.00						145	6.9	13.4	280	1.00					activation at 5 µg/mL [3, 14]: 32%; activation at 5 µg/mL [3, 15]: 120%; activation at 5 µg/mL [3, 16]: 90%; activation at 5 µg/mL [4, 17]: 55%; activation at 5 µg/mL [4, 18]: 56%; inhibition at 5 µg/mL ([10]; 5 mg/l): 12 ± 1%; effectiveness in cardiac rhythm disturbances ([13]; Br. Heart J. 38, 381 (1976)): effective primarily in the treatment of arrhythmia, auricular flutter, fibrillation and paroxysmal tachycardia; toxic side-effects ([13]; background literature): induce subjective hyperaesthesia, create vision problems, headache and nausea, and give rise to grave asthmatic symptoms
